Experiment [1] addresses T1, G12D-mutant human KRAS (amino acid residues 1-188) (Homo sapiens, UniProt P01116, G12D).
T1 construct: G12D or G12C-mutant human KRAS (amino acid residues 1-188) with FLAG tag; made in house; host or cells: E. coli
Put plainly: KRAS Binding Disruption Assay (AlphaScreen; biotinylated KRpep-2d analogue or RAF1-RBD), G12D. As to conditions: KRAS G12D; geometric mean; read-out: KRAS GMean IC50 (uM) MUTATION: G12D. The essentials: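 Mutant KRAS (5-20 nM) incubated 1 h at 25° C with test compound and 5-20 nM biotinylated KRpep-2d analogue or RAF1-RBD in 20 mM HEPES pH 7.5, 100 mM NaCl, 5 mM MgCl2, 0.01% Tween-20, 0.01% BSA.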
(In general: In Alpha technology, singlet oxygen from a donor bead excites a nearby acceptor bead.)

Experiment [2] addresses T2, G12V-mutant human KRAS (amino acid residues 1-188) (Homo sapiens, UniProt P01116, G12V).
T2 construct: G12V-mutant human KRAS (amino acid residues 1-188) with FLAG tag was purified from E. coli; made in house; host or cells: E. coli
Briefly: KRAS Binding Competition Assay (AlphaScreen; biotinylated KRpep-2d analogue), G12V. As to conditions: geometric mean, read-out: KRAS GMean IC50 (uM) MUTATION: G12V.

Consider `CN1CCC[C@H]1COc1nc(N2C[C@H]3CC[C@@H](C2)N3C(=O)Cc2cnn(C)c2)c2ccc(-c3cc(O)cc4ccccc34)c(F)c2n1` [P-0402, 1-((1R,5S)-3-(8-fluoro-7-(3-hydroxynaphthalen-1-yl)-2-(((S)-1-methylpyrrolidin-2-yl)methoxy)quinazolin-4-yl)-3,8-diazabicyclo[3.2.1]octan-8-yl)-2-(1-methyl-1H-pyrazol-4-yl)ethan-1-one], for which the IC50 in experiment [1] and in experiment [2] was 0.0001 to 10 µM each time.

Regarding `CN1CCC[C@H]1COc1nc(N2C[C@H]3CC[C@@H](C2)N3C(=O)[C@H]2CCCN2)c2ccc(-c3cc(O)cc4ccccc34)c(F)c2n1` [P-0403, 4-((1R,5S)-8-(D-prolyl)-3,8-diazabicyclo[3.2.1]octan-3-yl)-8-fluoro-7-(3-hydroxynaphthalen-1-yl)-2-(((S)-1-methylpyrrolidin-2-yl)methoxy)quinazoline], the IC50 in experiment [1] fell in the range of 0.0001 to 10 µM; in experiment [2], 10 to 100 µM.

On to `CN1CCC[C@H]1COc1nc(N2C[C@H]3CC[C@@H](C2)N3C(=O)C(O)CO)c2ccc(-c3cc(O)cc4ccccc34)c(F)c2n1` (stereo partly drawn) [P-0404, 1-((1R,5S)-3-(8-fluoro-7-(3-hydroxynaphthalen-1-yl)-2-(((S)-1-methylpyrrolidin-2-yl)methoxy)quinazolin-4-yl)-3,8-diazabicyclo[3.2.1]octan-8-yl)-2,3-dihydroxypropan-1-one], for which the IC50 lay in the range of 0.0001 to 10 µM in experiment [1] and 10 to 100 µM in experiment [2].

`CN1CCC[C@H]1COc1nc(N2C[C@H]3CC[C@@H](C2)N3S(=O)(=O)N[C@@H]2CCNC2)c2ccc(-c3cc(O)cc4ccccc34)c(F)c2n1` [P-0405, (1R,5S)-3-(8-fluoro-7-(3-hydroxynaphthalen-1-yl)-2-(((S)-1-methylpyrrolidin-2-yl)methoxy)quinazolin-4-yl)-N-((R)-pyrrolidin-3-yl)-3,8-diazabicyclo[3.2.1]octane-8-sulfonamide]: the concentration for half-maximal inhibition (IC50) in experiment [1] was 0.0001 to 10 µM; in experiment [2] it was 10 to 100 µM.

Take `Cc1cccc2c1N(c1ccc3c(N4C[C@H]5CC[C@@H](C4)N5)nc(OC[C@@H]4CCCN4C)nc3c1)CC(O)C2` (stereo partly drawn) [P-0406, 1-(4-((1R,5S)-3,8-diazabicyclo[3.2.1]octan-3-yl)-2-(((S)-1-methylpyrrolidin-2-yl)methoxy)quinazolin-7-yl)-8-methyl-1,2,3,4-tetrahydroquinolin-3-ol]: the IC50 lay in the range of 10 to 100 µM in experiment [1] and 100 to 1000 µM in experiment [2].

For `CN1CCC[C@H]1COc1nc(N2C[C@H]3CC[C@@H](C2)N3C(=O)CS(N)(=O)=O)c2ccc(-c3cc(O)cc4ccccc34)cc2n1` [P-0407, 2-((1R,5S)-3-(7-(3-hydroxynaphthalen-1-yl)-2-(((S)-1-methylpyrrolidin-2-yl)methoxy)quinazolin-4-yl)-3,8-diazabicyclo[3.2.1]octan-8-yl)-2-oxoethane-1-sulfonamide], the half-maximal inhibitory concentration (IC50) in experiment [1] and in experiment [2] was 0.0001 to 10 µM throughout.

As to `CN(C)S(=O)(=O)CC(=O)N1[C@@H]2CC[C@H]1CN(c1nc(OCC34CCCN3CCC4)nc3c(F)c(-c4cc(O)cc5ccccc45)ccc13)C2` [P-0410, 2-((1R,5S)-3-(8-fluoro-7-(3-hydroxynaphthalen-1-yl)-2-((tetrahydro-1H-pyrrolizin-7a(5H)-yl)methoxy)quinazolin-4-yl)-3,8-diazabicyclo[3.2.1]octan-8-yl)-N,N-dimethyl-2-oxoethane-1-sulfonamide], the half-maximal inhibitory concentration (IC50) in experiment [1] and in experiment [2] was 0.0001 to 10 µM each time.

As to `CN(C)CCc1nc(N2C[C@H]3CC[C@@H](C2)N3)c2ccc(-c3cc(O)cc4ccccc34)c(F)c2n1` [P-0413], the IC50 in experiment [1] lay within 0.0001 to 10 µM; in experiment [2], 10 to 100 µM.

On to `CN1CCN(CCNC(=O)N2[C@@H]3CC[C@H]2CN(c2nc(OCC4CCCN4C)nc4c(F)c(-c5cc(O)cc6ccccc56)ccc24)C3)CC1` (stereo partly drawn) [P-0416, (1R,5S)-3-(8-fluoro-7-(3-hydroxynaphthalen-1-yl)-2-((1-methylpyrrolidin-2-yl)methoxy)quinazolin-4-yl)-N-(2-(4-methylpiperazin-1-yl)ethyl)-3,8-diazabicyclo[3.2.1]octane-8-carboxamide], for which the IC50 in experiment [1] and in experiment [2] was 10 to 100 µM throughout.

As for `CN1CCCC1COc1nc(N2C[C@H]3CC[C@@H](C2)N3C(=O)NC2COC(C)(C)C2)c2ccc(-c3cc(O)cc4ccccc34)c(F)c2n1` (stereo partly drawn) [P-0417, (1R,5S)-N-(5,5-dimethyltetrahydrofuran-3-yl)-3-(8-fluoro-7-(3-hydroxynaphthalen-1-yl)-2-((1-methylpyrrolidin-2-yl)methoxy)quinazolin-4-yl)-3,8-diazabicyclo[3.2.1]octane-8-carboxamide], the half-inhibitory concentration (IC50) in experiment [1] and in experiment [2] was 0.0001 to 10 µM in each case.

For `CCN1CC[C@H](NC(=O)N2[C@@H]3CC[C@H]2CN(c2nc(OCC4CCCN4C)nc4c(F)c(-c5cc(O)cc6ccccc56)ccc24)C3)C1` (stereo partly drawn) [P-0418, (1R,5S)-N-((S)-1-ethylpyrrolidin-3-yl)-3-(8-fluoro-7-(3-hydroxynaphthalen-1-yl)-2-((1-methylpyrrolidin-2-yl)methoxy)quinazolin-4-yl)-3,8-diazabicyclo[3.2.1]octane-8-carboxamide], the IC50 in experiment [1] lay within 0.0001 to 10 µM; in experiment [2], 10 to 100 µM.

On to `CN1CCCC1COc1nc(N2C[C@H]3CC[C@@H](C2)N3C(=O)NC2CCN(C3CCCCC3)C2)c2ccc(-c3cc(O)cc4ccccc34)c(F)c2n1` (stereo partly drawn) [P-0419, (1R,5S)-N-(1-cyclohexylpyrrolidin-3-yl)-3-(8-fluoro-7-(3-hydroxynaphthalen-1-yl)-2-((1-methylpyrrolidin-2-yl)methoxy)quinazolin-4-yl)-3,8-diazabicyclo[3.2.1]octane-8-carboxamide], for which the figures for the IC50 in experiment [1] and in experiment [2] were 0.0001 to 10 µM and 10 to 100 µM, respectively.

Take `CONC(=O)N1[C@@H]2CC[C@H]1CN(c1nc(OCC3CCCN3C)nc3c(F)c(-c4cc(O)cc5ccccc45)ccc13)C2` (stereo partly drawn) [P-0420, (1R,5S)-3-(8-fluoro-7-(3-hydroxynaphthalen-1-yl)-2-((1-methylpyrrolidin-2-yl)methoxy)quinazolin-4-yl)-N-methoxy-3,8-diazabicyclo[3.2.1]octane-8-carboxamide]: the results for the IC50 in experiment [1] and in experiment [2] were 0.0001 to 10 µM and 10 to 100 µM, respectively.

For the compound `CN1CCCC1COc1nc(N2C[C@H]3CC[C@@H](C2)N3C(=O)NC2CN3CCC2CC3)c2ccc(-c3cc(O)cc4ccccc34)c(F)c2n1` (stereo partly drawn) [P-0421, (1R,5S)-3-(8-fluoro-7-(3-hydroxynaphthalen-1-yl)-2-((1-methylpyrrolidin-2-yl)methoxy)quinazolin-4-yl)-N-(quinuclidin-3-yl)-3,8-diazabicyclo[3.2.1]octane-8-carboxamide], the half-maximal inhibitory concentration (IC50) fell in the range of 0.0001 to 10 µM in experiment [1] and 10 to 100 µM in experiment [2].

In the case of `CN1CCCC1COc1nc(N2C[C@H]3CC[C@@H](C2)N3C(=O)NO)c2ccc(-c3cc(O)cc4ccccc34)c(F)c2n1` (stereo partly drawn) [P-0422, (1R,5S)-3-(8-fluoro-7-(3-hydroxynaphthalen-1-yl)-2-((1-methylpyrrolidin-2-yl)methoxy)quinazolin-4-yl)-N-hydroxy-3,8-diazabicyclo[3.2.1]octane-8-carboxamide], the IC50 in experiment [1] and in experiment [2] was 0.0001 to 10 µM in each case.

For `CN1CCCC1COc1nc(N2C[C@H]3CC[C@@H](C2)N3C(=O)NCC(N)=O)c2ccc(-c3cc(O)cc4ccccc34)c(F)c2n1` (stereo partly drawn) [P-0423, (1R,5S)-N-(2-amino-2-oxoethyl)-3-(8-fluoro-7-(3-hydroxynaphthalen-1-yl)-2-((1-methylpyrrolidin-2-yl)methoxy)quinazolin-4-yl)-3,8-diazabicyclo[3.2.1]octane-8-carboxamide], the IC50 in experiment [1] and in experiment [2] was 0.0001 to 10 µM in each case.

For the compound `CN1CCC[C@H]1COc1nc(N2C[C@H]3CC[C@@H](C2)N3C(=O)[C@@H](N)CO)c2ccc(-c3cc(O)cc4ccccc34)c(F)c2n1` [P-0424, (S)-2-amino-1-((1R,5S)-3-(8-fluoro-7-(3-hydroxynaphthalen-1-yl)-2-(((S)-1-methylpyrrolidin-2-yl)methoxy)quinazolin-4-yl)-3,8-diazabicyclo[3.2.1]octan-8-yl)-3-hydroxypropan-1-one], the values for the concentration for half-maximal inhibition (IC50) in experiment [1] and in experiment [2] were 0.0001 to 10 µM and 10 to 100 µM, respectively.

As to `CN1CCC[C@H]1COc1nc(N2C[C@H]3CC[C@@H](C2)N3C(=O)[C@@H]2C[C@@H](O)CN2)c2ccc(-c3cc(O)cc4ccccc34)c(F)c2n1` [P-0425, ((1R,5S)-3-(8-fluoro-7-(3-hydroxynaphthalen-1-yl)-2-(((S)-1-methylpyrrolidin-2-yl)methoxy)quinazolin-4-yl)-3,8-diazabicyclo[3.2.1]octan-8-yl)((2S,4R)-4-hydroxypyrrolidin-2-yl)methanone], the IC50 is 0.0001 to 10 µM in experiment [1] and 10 to 100 µM in experiment [2].

In the case of `CNCC(=O)N1[C@@H]2CC[C@H]1CN(c1nc(OC[C@@H]3CCCN3C)nc3c(F)c(-c4cc(O)cc5ccccc45)ccc13)C2` [P-0426, 1-((1R,5S)-3-(8-fluoro-7-(3-hydroxynaphthalen-1-yl)-2-(((S)-1-methylpyrrolidin-2-yl)methoxy)quinazolin-4-yl)-3,8-diazabicyclo[3.2.1]octan-8-yl)-2-(methylamino)ethan-1-one], the IC50 in experiment [1] is 0.0001 to 10 µM; in experiment [2], 10 to 100 µM.

In the case of `CN1CCC[C@H]1COc1nc(N2C[C@H]3CC[C@@H](C2)N3CC(=O)N2CCC(N)CC2)c2ccc(-c3cc(O)cc4ccccc34)c(F)c2n1` [P-0427, 1-(4-aminopiperidin-1-yl)-2-((1R,5S)-3-(8-fluoro-7-(3-hydroxynaphthalen-1-yl)-2-(((S)-1-methylpyrrolidin-2-yl)methoxy)quinazolin-4-yl)-3,8-diazabicyclo[3.2.1]octan-8-yl)ethan-1-one], the IC50 fell in the range of 10 to 100 µM in experiment [1] and 100 to 1000 µM in experiment [2].

For orientation: IC50 means the concentration at which inhibition is half-maximal.

The values are drawn from patent publication US20230081426A1, “COMPOUNDS AND METHODS FOR KRAS MODULATION AND INDICATIONS THEREFOR” (Plexxikon Inc., priority 2020, published 2023).
